Patent US8415475B2, “Antibacterial quinoline derivatives” (Janssen Pharmaceutica N.V., priority 2006, dated 2013)
≈ marks a conversion by molar mass, not a printed value.

How the values were obtained:
M. Smegmatis (ATCC607) = assay: In-vitro anti-bacterial activity against strain M. smegmatis ATCC607; format: cell-based; conditions: 90% inhibitory concentration for bacterial growth, Alamar Blue fluorescence; for IC90 values MSM 1 ATCC607: 48 hours; for IC90: Mycolicibacterium smegmatis, ATCC607, 48 h, read-out: IC90 values MSM 1 ATCC607
Description: D.2. In-Vitro Method for Testing Compounds for Anti-Bacterial Activity Against Strain M. smegmatis ATCC607. Flat-bottom, sterile 96-well plastic microtiter plates were filled with 180 μl of sterile deionized water, supplemented with 0.25% BSA. Subsequently, stock solutions (7.8× final test concentration) of compounds were added in 45 μl volumes to a series of duplicate wells in column 2 so as to allow evaluation of their effects on bacterial growth. Serial five-fold dilutions (45 μl in 180 μl) were made directly in the microtiter plates from column 2 to 11 using a customised robot system (Zymark Corp., Hopkinton, Mass.). Pipette tips were changed after every 3 dilutions to minimize pipetting errors with high hydrophobic compounds. Untreated control samples with (column 1) and without (column 12) inoculum were included in each microtiter plate. Approximately 250 CFU per well of bacteria inoculum, in a volume of 100 μl in 2.8× Mueller-Hinton broth medium, was added to the rows […]. The same volume of broth medium without inoculum was added to column 12 in row A to H. The cultures were incubated at 37° C. for 48 hours in a humidified 5% CO2 atmosphere (incubator with open air valve and continuous ventilation). At the end of incubation, two days after inoculation, the bacterial growth was quantitated fluorometrically. Therefore Alamar Blue (10×) was added to all wells in a volume of 20 μl and plates were incubated for another 2 hours at […] The fluorescence was read in a computer-controlled fluorometer (Cytofluor, Biosearch) at an excitation wavelength of 530 nm and an emission wavelength of 590 nm (gain 30).

[1] = tested on: Streptococcus pneumoniae (ATCC6305); assay: In-vitro anti-bacterial microtitre plate assay, IC90, S. pneumoniae; format: cell-based; conditions: 90% inhibitory concentration for bacterial growth, resazurin fluorescence; for IC90: Streptococcus pneumoniae, ATCC6305, 24 h, read-out: IC90 values SPN 1 6305; for IC90 values SPN 1 6305: 24 hours
Description: (§1) D.3. In-Vitro Method for Testing Compounds for Anti-Bacterial Activity Against Various Non-Mycobacterial Strains The bacteria used in this study were grown overnight in flasks containing 100 ml Mueller-Hinton Broth (Becton Dickinson-cat. no. 275730) in sterile de-ionized water, with shaking, at 37° C. Stocks (0.5 ml/tube) were stored at -70° C. until use. Bacteria titrations were performed in microtiter plates to detect the TCID50, in which the TCID50 represents the dilution that gives rise to bacterial growth in 50% of inoculated cultures. In general, an inoculum level of approximately 100 TCID50 was used for susceptibility testing. Flat-bottom, sterile 96-well plastic microtiter plates were filled with 180 μl of sterile deionized water, supplemented with 0.25% BSA. Subsequently, stock solutions (7.8× final test concentration) of compounds were added in 45 μl volumes in column 2. Serial five-fold dilutions (45 μl in 180 μl) were made directly in the microtiter plates from column 2 to reach column 11. Untreated control samples with (column 1) and without (column 12) inoculum were included in each microtiter plate. Depending on the bacteria type, approximately 10 to 60 CFU per well of bacteria inoculum (100 TCID50), in a volume of 100 μl in 2.8× Mueller-Hinton broth medium, was added to the rows […]. The same volume of broth medium without inoculum was added to column 12 in row A to H. The cultures were incubated at 37° C. for 24 hours under a normal atmosphere (incubator with open air valve and continuous ventilation). At the end of incubation, one day after inoculation, the bacterial growth was quantitated fluorometrically. Therefore resazurin (0.6 mg/ml) was added in a volume of 20 μl to all wells 3 hours after inoculation, and the plates were re-incubated overnight. A change in colour from blue to pink indicated the growth of bacteria. The fluorescence was read in a computer-controlled fluorometer (Cytofluor Biosearch) at an excitation wavelength of 530 nm and an emission wavelength of 590 nm. The % growth inhibition achieved by the compounds was calculated according to standard methods.

[2] = tested on: Staphylococcus aureus (ATCC29213); assay: In-vitro anti-bacterial microtitre plate assay, IC90, S. aureus; format: cell-based; conditions: 90% inhibitory concentration for bacterial growth, resazurin fluorescence; for IC90: Staphylococcus aureus, ATCC29213, 24 h, read-out: IC90 values STA 1 B29213; for IC90 values STA 1 B29213: 24 hours
Description: as §1

[3] = tested on: Streptococcus pyogens (ATCC8668); assay: In-vitro anti-bacterial microtitre plate assay, IC90, S. pyogens; format: cell-based; conditions: 90% inhibitory concentration for bacterial growth, resazurin fluorescence; for IC90: Streptococcus, ATCC8668, 24 h, read-out: IC90 values SPY 8668
Description: as §1

[4] = tested on: Enterococcus faecalis (ATCC29212); assay: In-vitro anti-bacterial microtitre plate assay, IC90, E. faecalis; format: cell-based; conditions: 90% inhibitory concentration for bacterial growth, resazurin fluorescence; for IC90: Enterococcus faecalis, ATCC29212, 24 h, read-out: IC90 values EFA 29212
Description: as §1

[5] = tested on: Mycobacterium tuberculosis (strain H37RV); assay: In-vitro method for testing compounds against M. tuberculosis; format: cell-based; conditions: 90% inhibitory concentration for bacterial growth, 7 days, Middlebrook broth, resazurin fluorescence; for IC90: Mycobacterium tuberculosis, H37RV, 168 h, read-out: IC90 values MTB 1 H37RV

Row | IC90 [1] [µg/mL] | IC90 [2] [µg/mL] | IC90 values SPN 1 6305 [1] [µg/mL] | IC90 values STA 1 B29213 [2] [µg/mL] | melting point [°C] | Structure (SMILES) | IC90 values MSM 1 ATCC607 (M. Smegmatis (ATCC607)) [µg/mL] | other results
1 | 13.4 (≈ 25.1 µM) | 10.7 (≈ 20 µM) | – | – | – | COc1nc2ccc(CN(C)C)cc2cc1C(c1ccccc1)C(O)(CCN(C)C)c1cccc2ccccc12 (single isomer, unassigned) [Compound 21] | 0.7 (≈ 1.31 µM) | –
2 | – | – | 1.3 (≈ 2.61 µM) | 1.6 (≈ 3.21 µM) | 156 | C=Cc1ccc2nc(OC)c(C(c3ccccc3)C(O)(CCc3ccc(F)cc3)CCN(C)C)cc2c1 (single isomer, unassigned) [Compound 7] | 1.3 (≈ 2.61 µM) | –
3 | 10.5 (≈ 17.8 µM) | 9.3 (≈ 15.8 µM) | – | – | – | COc1nc2ccc(CN3CCN(C)CC3)cc2cc1C(c1ccccc1)C(O)(CCN(C)C)c1cccc2ccccc12 (single isomer, unassigned) [Compound 29] | – | IC90 (M. Smegmatis (ATCC607)): 2.6 µg/mL (≈ 4.42 µM)
4 | 49.8 (≈ 100 µM) | 7.9 (≈ 15.9 µM) | – | – | – | COc1nc2ccc(/C=N/O)cc2cc1C(c1ccccc1)C(O)(CCCCN(C)C)c1ccccc1 (single isomer, unassigned) [Compound 3] | – | IC90 (M. Smegmatis (ATCC607)): 7.9 µg/mL (≈ 15.9 µM)
5 | – | – | – | – | 185 | COc1nc2ccc(C(=O)c3cccc(Br)c3)cc2cc1C(c1ccc(Cl)cc1)C(O)(CCN(C)C)c1ccccc1 (single isomer, unassigned) [Compound 40] | – | –
6 | – | 1.7 (≈ 3.1 µM) | 10.9 (≈ 19.9 µM) | – | – | COc1nc2ccc(/C=N/O)cc2cc1C(c1ccccc1)C(O)(CCCCN(C)C)c1ccc2ccccc2c1 (single isomer, unassigned) [Compound 32] | 7.7 (≈ 14.1 µM) | –
7 | – | 1.7 (≈ 3.26 µM) | 2.1 (≈ 4.03 µM) | – | – | C=Cc1ccc2nc(OC)c(C(c3ccccc3)C(O)(CCCCN3CCCCC3)c3ccccc3)cc2c1 (single isomer, unassigned) [Compound 34] | – | IC90 (M. Smegmatis (ATCC607)): 1.7 µg/mL (≈ 3.26 µM)
8 | – | – | 21.3 (≈ 39.9 µM) | 9.5 (≈ 17.8 µM) | – | COc1nc2ccc(CN(C)C)cc2cc1C(c1ccccc1)C(O)(CCN(C)C)c1cccc2ccccc12 (single isomer, unassigned) [Compound 22] | 18.9 (≈ 35.4 µM) | –
9 | – | – | 10.4 (≈ 20 µM) | 1.7 (≈ 3.26 µM) | – | C=Cc1ccc2nc(OC)c(C(c3ccccc3)C(O)(CCCCN3CCCCC3)c3ccccc3)cc2c1 (single isomer, unassigned) [Compound 35] | 1.7 (≈ 3.26 µM) | –
10 | – | – | 1.9 (≈ 3.47 µM) | 1.7 (≈ 3.1 µM) | 180 | COc1nc2ccc(/C=N/O)cc2cc1C(c1ccccc1)C(O)(CCCCN(C)C)c1ccc2ccccc2c1 (single isomer, unassigned) [Compound 33] | 1.7 (≈ 3.1 µM) | –
11 | 1.3 (≈ 2.61 µM) | 1.6 (≈ 3.21 µM) | – | – | 135 | C=Cc1ccc2nc(OC)c(C(c3ccccc3)C(O)(CCc3ccc(F)cc3)CCN(C)C)cc2c1 (single isomer, unassigned) [Compound 6] | 0.1 (≈ 0.201 µM) | –
12 | – | 51.5 (≈ 100 µM) | 0.3 (≈ 0.583 µM) | – | 100 | CC#Cc1ccc2nc(OC)c(C(c3ccccc3)C(O)(CCN(C)C)c3cccc4ccccc34)cc2c1 (single isomer, unassigned) [Compound 13] | 0.003 (≈ 0.00583 µM) | IC90 [3]: 51.5 µg/mL (≈ 100 µM); IC90 [4]: 51.5 µg/mL (≈ 100 µM)
13 | – | 51.7 (≈ 100 µM) | 0.7 (≈ 1.35 µM) | – | 189 | C/C=C/c1ccc2nc(OC)c(C(c3ccccc3)C(O)(CCN(C)C)c3cccc4ccccc34)cc2c1 (single isomer, unassigned) [Compound 12] | 0.3 (≈ 0.581 µM) | IC90 [3]: 51.7 µg/mL (≈ 100 µM); IC90 [4]: 51.7 µg/mL (≈ 100 µM)
14 | 10.2 (≈ 19.9 µM) | 8.1 (≈ 15.8 µM) | – | – | – | CO/N=C/c1ccc2nc(OC)c(C(c3ccccc3)C(O)(CCCCN(C)C)c3ccccc3)cc2c1 (single isomer, unassigned) [Compound 4] | – | IC90 (M. Smegmatis (ATCC607)): 1.6 µg/mL (≈ 3.13 µM)
15 | 1.7 (≈ 3.49 µM) | 48.7 (≈ 100 µM) | – | – | 184 | C=Cc1ccc2nc(OC)c(C(c3ccc(Cl)cc3)C(O)(CCN(C)C)c3ccccc3)cc2c1 (single isomer, unassigned) [Compound 1] | – | –
16 | – | – | – | – | 118 | COc1nc2ccc(C(=O)c3cccc(Br)c3)cc2cc1C(c1ccccc1)C(O)(CCN(C)C)c1cccc2ccccc12 (stereo not drawn) [Compound 38] | – | –
17 | – | – | 1.7 (≈ 3.49 µM) | 48.7 (≈ 100 µM) | 187 | C=Cc1ccc2nc(OC)c(C(c3ccc(Cl)cc3)C(O)(CCN(C)C)c3ccccc3)cc2c1 (single isomer, unassigned) [Compound 2] | – | IC90 (M. Smegmatis (ATCC607)): 1.4 µg/mL (≈ 2.87 µM); IC90 [3]: 1.22 µg/mL (≈ 2.5 µM); IC90 [4]: 38.7 µg/mL (≈ 79.4 µM)
18 | – | – | 1.5 (≈ 2.91 µM) | 45.9 (≈ 89.2 µM) | 202 | CC#Cc1ccc2nc(OC)c(C(c3ccccc3)C(O)(CCN(C)C)c3cccc4ccccc34)cc2c1 (single isomer, unassigned) [Compound 14] | 0.3 (≈ 0.583 µM) | IC90 values SPY 8668 ([3]; 24 hours): 40.88 µg/mL (≈ 79.4 µM); IC90 values EFA 29212 ([4]; 24 hours): 51.47 µg/mL (≈ 100 µM)

Row | Structure (SMILES) | IC90 [1] [µg/mL] | IC90 [2] [µg/mL] | IC90 values SPN 1 6305 [1] [µg/mL] | IC90 values STA 1 B29213 [2] [µg/mL] | melting point [°C] | IC90 values MSM 1 ATCC607 (M. Smegmatis (ATCC607)) [µg/mL] | other results
19 | COc1nc2ccc(/C=N/O)cc2cc1C(c1ccccc1)C(O)(CCN(C)C)c1cccc2ccccc12 (single isomer, unassigned) [Compound 24] | – | 8.2 (≈ 15.8 µM) | 1.6 (≈ 3.08 µM) | – | 167 | 2.3 (≈ 4.43 µM) | –
20 | C=Cc1ccc2nc(OC)c(C(c3ccccc3)C(O)(CCN(C)C)c3cccc4ccccc34)cc2c1 (single isomer, unassigned) [Compound 10] | – | 50.3 (≈ 100 µM) | 20.0 (≈ 39.8 µM) | – | – | – | IC90 (M. Smegmatis (ATCC607)): 8 µg/mL (≈ 15.9 µM)
21 | COc1nc2ccc(CN)cc2cc1C(c1ccccc1)C(O)(CCN(C)C)c1cccc2ccccc12 (single isomer, unassigned) [Compound 20] | 8 (≈ 15.8 µM) | – | – | 35.8 (≈ 70.8 µM) | – | 40.2 (≈ 79.5 µM) | –
22 | COc1nc2ccc(N)cc2cc1C(c1ccccc1)C(O)(CCN(C)C)c1cccc2ccccc12 (single isomer, unassigned) [Compound 16] | – | – | 24.6 (≈ 50 µM) | 43.8 (≈ 89.1 µM) | – | 7.8 (≈ 15.9 µM) | IC90 values MTB 1 H37RV [5]: 31.0 µg/mL (≈ 63.1 µM)
23 | COc1nc2ccc(CN)cc2cc1C(c1ccccc1)C(O)(CCN(C)C)c1cccc2ccccc12 (single isomer, unassigned) [Compound 17] | – | – | 8.0 (≈ 15.8 µM) | 8.0 (≈ 15.8 µM) | – | 0.4 (≈ 0.791 µM) | IC90 [5]: 3.6 µg/mL (≈ 7.12 µM)
24 | COc1nc2ccc(C(=O)N(C)C)cc2cc1C(c1ccccc1)C(O)(CCN(C)C)c1cccc2ccccc12 (single isomer, unassigned) [Compound 28] | 10.9 (≈ 19.9 µM) | 43.5 (≈ 79.4 µM) | – | – | – | – | IC90 (M. Smegmatis (ATCC607)): 0.1 µg/mL (≈ 0.183 µM); IC90 [5]: 3.5 µg/mL (≈ 6.39 µM)
